From ChEMBL document CHEMBL1201862, “PubChem BioAssay data set” (2004)
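In this assay, cells in 96-well plates receive the compound at five concentrations for 48 hours. Endpoints are linearly interpolated between the surrounding concentrations. Here, GI50 denotes the concentration required for 50% inhibition of growth.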 The source made the active and inactive calls. No stated cut-off is given here; in the data, active = GI50 up to about 1.1 µM and inactive = higher.

Key:
Assay in all cases: DTP human tumour cell line panel, 48 h
LOX IMVI = tested on: LOX IMVI
NCI/ADR-RES = tested on: NCI/ADR-RES
Malme-3M = tested on: Malme-3M
M14 = tested on: M14
SK-MEL-28 = tested on: SK-MEL-28
MDA-MB-435 = tested on: MDA-MB-435
MOLT-4 = tested on: MOLT-4
OVCAR-8 = tested on: OVCAR-8
SW-620 = tested on: SW-620
HOP-92 = tested on: HOP-92
CAKI-1 = tested on: CAKI-1
HCC 2998 = tested on: HCC 2998
MDA-N = tested on: MDA-N
UACC-257 = tested on: UACC-257
OVCAR-3 = tested on: OVCAR-3
MDA-MB-231 = tested on: MDA-MB-231
HT-29 = tested on: HT-29
KM12 = tested on: KM12
HL-60 = tested on: HL-60
UO-31 = tested on: UO-31
NCI-H522 = tested on: NCI-H522
PC-3 = tested on: PC-3
COLO 205 = tested on: COLO 205
SF-268 = tested on: SF-268
CCRF-CEM = tested on: CCRF-CEM
BT-549 = tested on: BT-549
ACHN = tested on: ACHN
OVCAR-4 = tested on: OVCAR-4
A498 = tested on: A498
OVCAR-5 = tested on: OVCAR-5
SF-539 = tested on: SF-539
RXF 393 = tested on: RXF 393
SK-MEL-2 = tested on: SK-MEL-2
SNB-19 = tested on: SNB-19
HCT-15 = tested on: HCT-15
K562 = tested on: K562
U-251 = tested on: U-251
786-0 = tested on: 786-0
IGROV-1 = tested on: IGROV-1
HOP-62 = tested on: HOP-62
NCI-H460 = tested on: NCI-H460
SF-295 = tested on: SF-295
NCI-H226 = tested on: NCI-H226
HCT-116 = tested on: HCT-116
SK-MEL-5 = tested on: SK-MEL-5
SR = tested on: SR
DU-145 = tested on: DU-145
SN12C = tested on: SN12C
SNB-75 = tested on: SNB-75
MCF7 = tested on: MCF7
A549 = tested on: A549
T47D = tested on: T47D
TK-10 = tested on: TK-10
UACC-62 = tested on: UACC-62
RPMI-8226 = tested on: RPMI-8226
NCI-H23 = tested on: NCI-H23
Hs-578T = tested on: Hs-578T
SK-OV-3 = tested on: SK-OV-3
EKVX = tested on: EKVX

Structure (SMILES): Cc1ccc2c(c1)[nH]c(=S)n2/C=C1\C(=O)Oc2ccccc2C1=O
- GI50 (LOX IMVI): 70 µM (inactive)
- GI50 (NCI/ADR-RES): 56.2 µM (inactive)
- GI50 (Malme-3M): 34.6 µM (inactive)
- GI50 (M14): 39.8 µM (inactive)
- GI50 (SK-MEL-28): 47.3 µM (inactive)
- GI50 (MDA-MB-435): 61.8 µM (inactive)
- GI50 (MOLT-4): 38.2 µM (inactive)
- GI50 (OVCAR-8): 65.8 µM (inactive)
- GI50 (SW-620): 52.6 µM (inactive)
- GI50 (HOP-92): 39 µM (inactive)
- GI50 (CAKI-1): 19.6 µM (inactive)
- GI50 (HCC 2998): > 100 µM (inactive)
- GI50 (MDA-N): 90.6 µM (inactive)
- GI50 (UACC-257): 82 µM (inactive)
- GI50 (OVCAR-3): 24.4 µM (inactive)
- GI50 (MDA-MB-231): 50.5 µM (inactive)
- GI50 (HT-29): 57.5 µM (inactive)
- GI50 (KM12): 84.5 µM (inactive)
- GI50 (HL-60): 55 µM (inactive)
- GI50 (UO-31): 30.2 µM (inactive)
- GI50 (NCI-H522): 38.7 µM (inactive)
- GI50 (PC-3): 76.7 µM (inactive)
- GI50 (COLO 205): 99.3 µM (inactive)
- GI50 (SF-268): 55.7 µM (inactive)
- GI50 (CCRF-CEM): 34.8 µM (inactive)
- GI50 (BT-549): 45.7 µM (inactive)
- GI50 (ACHN): 36 µM (inactive)
- GI50 (OVCAR-4): 64.1 µM (inactive)
- GI50 (A498): 49.1 µM (inactive)
- GI50 (OVCAR-5): > 100 µM (inactive)
- GI50 (SF-539): 69.7 µM (inactive)
- GI50 (RXF 393): 30.5 µM (inactive)
- GI50 (SK-MEL-2): > 100 µM (inactive)
- GI50 (SNB-19): 86.5 µM (inactive)
- GI50 (HCT-15): 44.9 µM
- GI50 (K562): 52.2 µM (inactive)
- GI50 (U-251): 53.1 µM (inactive)
- GI50 (786-0): 42.8 µM (inactive)
- GI50 (IGROV-1): 39 µM (inactive)
- GI50 (HOP-62): 51.3 µM (inactive)
- GI50 (NCI-H460): 44.1 µM (inactive)
- GI50 (SF-295): > 100 µM (inactive)
- GI50 (NCI-H226): > 100 µM (inactive)
- GI50 (HCT-116): 44.9 µM (inactive)
- GI50 (SK-MEL-5): 40.6 µM (inactive)
- GI50 (SR): 71.6 µM (inactive)
- GI50 (DU-145): 41.3 µM (inactive)
- GI50 (SN12C): 59.4 µM (inactive)
- GI50 (SNB-75): 38.4 µM (inactive)
- GI50 (MCF7): > 100 µM (inactive)
- GI50 (A549): 77.4 µM (inactive)
- GI50 (T47D): 89.1 µM (inactive)
- GI50 (TK-10): > 100 µM (inactive)
- GI50 (UACC-62): 13.1 µM (inactive)
- GI50 (RPMI-8226): 65.2 µM (inactive)
- GI50 (NCI-H23): 70.8 µM (inactive)
- GI50 (Hs-578T): 25.5 µM (inactive)

Structure (SMILES): COC(=O)[C@@H]1C2OC(C)(C)OC2CN1C(=O)OCc1ccccc1 (some centres not stated)
- GI50 (LOX IMVI): > 100 µM (inactive)
- GI50 (NCI/ADR-RES): > 100 µM (inactive)
- GI50 (Malme-3M): > 100 µM (inactive)
- GI50 (M14): > 100 µM (inactive)
- GI50 (SK-MEL-28): > 100 µM (inactive)
- GI50 (MDA-MB-435): > 100 µM (inactive)
- GI50 (MOLT-4): > 100 µM (inactive)
- GI50 (OVCAR-8): > 100 µM (inactive)
- GI50 (SW-620): > 100 µM (inactive)
- GI50 (HOP-92): > 100 µM (inactive)
- GI50 (CAKI-1): > 100 µM (inactive)
- GI50 (SK-OV-3): > 100 µM (inactive)
- GI50 (HCC 2998): > 100 µM (inactive)
- GI50 (MDA-N): > 100 µM (inactive)
- GI50 (UACC-257): > 100 µM (inactive)
- GI50 (OVCAR-3): > 100 µM (inactive)
- GI50 (MDA-MB-231): > 100 µM (inactive)
- GI50 (HT-29): > 100 µM (inactive)
- GI50 (KM12): > 100 µM (inactive)
- GI50 (HL-60): > 100 µM (inactive)
- GI50 (UO-31): > 100 µM (inactive)
- GI50 (NCI-H522): > 100 µM (inactive)
- GI50 (PC-3): > 100 µM (inactive)
- GI50 (COLO 205): > 100 µM (inactive)
- GI50 (SF-268): > 100 µM (inactive)
- GI50 (BT-549): > 100 µM (inactive)
- GI50 (ACHN): > 100 µM (inactive)
- GI50 (OVCAR-4): > 100 µM (inactive)
- GI50 (A498): > 100 µM (inactive)
- GI50 (OVCAR-5): > 100 µM (inactive)
- GI50 (SF-539): > 100 µM (inactive)
- GI50 (RXF 393): > 100 µM (inactive)
- GI50 (SK-MEL-2): > 100 µM (inactive)
- GI50 (SNB-19): > 100 µM (inactive)
- GI50 (HCT-15): > 100 µM
- GI50 (K562): > 100 µM (inactive)
- GI50 (U-251): > 100 µM (inactive)
- GI50 (786-0): > 100 µM (inactive)
- GI50 (IGROV-1): > 100 µM (inactive)
- GI50 (HOP-62): > 100 µM (inactive)
- GI50 (NCI-H460): > 100 µM (inactive)
- GI50 (SF-295): > 100 µM (inactive)
- GI50 (NCI-H226): > 100 µM (inactive)
- GI50 (HCT-116): > 100 µM (inactive)
- GI50 (EKVX): > 100 µM (inactive)
- GI50 (SK-MEL-5): > 100 µM (inactive)
- GI50 (SR): > 100 µM (inactive)
- GI50 (DU-145): > 100 µM (inactive)
- GI50 (SN12C): > 100 µM (inactive)
- GI50 (SNB-75): 4.58 µM (inactive)
- GI50 (MCF7): > 100 µM (inactive)
- GI50 (A549): > 100 µM (inactive)
- GI50 (T47D): > 100 µM (inactive)
- GI50 (TK-10): > 100 µM (inactive)
- GI50 (UACC-62): > 100 µM (inactive)
- GI50 (RPMI-8226): > 100 µM (inactive)
- GI50 (NCI-H23): > 100 µM (inactive)
- GI50 (Hs-578T): > 100 µM (inactive)

Structure (SMILES): CC1NC(=O)c2c(-c3ccccc3)nn(-c3ccccc3)c2NC1=O (configuration not stated)
- GI50 (LOX IMVI): > 100 µM (inactive)
- GI50 (NCI/ADR-RES): > 100 µM (inactive)
- GI50 (Malme-3M): > 100 µM (inactive)
- GI50 (M14): > 100 µM (inactive)
- GI50 (SK-MEL-28): > 100 µM (inactive)
- GI50 (MDA-MB-435): > 100 µM (inactive)
- GI50 (MOLT-4): > 100 µM (inactive)
- GI50 (OVCAR-8): > 100 µM (inactive)
- GI50 (SW-620): > 100 µM (inactive)
- GI50 (HOP-92): > 100 µM (inactive)
- GI50 (CAKI-1): > 100 µM (inactive)
- GI50 (SK-OV-3): > 100 µM (inactive)
- GI50 (HCC 2998): > 100 µM (inactive)
- GI50 (MDA-N): > 100 µM (inactive)
- GI50 (UACC-257): > 100 µM (inactive)
- GI50 (OVCAR-3): 37.4 µM (inactive)
- GI50 (MDA-MB-231): > 100 µM (inactive)
- GI50 (HT-29): > 100 µM (inactive)
- GI50 (KM12): > 100 µM (inactive)
- GI50 (UO-31): > 100 µM (inactive)
- GI50 (NCI-H522): > 100 µM (inactive)
- GI50 (PC-3): > 100 µM (inactive)
- GI50 (COLO 205): > 100 µM (inactive)
- GI50 (SF-268): > 100 µM (inactive)
- GI50 (CCRF-CEM): > 100 µM (inactive)
- GI50 (BT-549): > 100 µM (inactive)
- GI50 (ACHN): > 100 µM (inactive)
- GI50 (OVCAR-4): > 100 µM (inactive)
- GI50 (A498): > 100 µM (inactive)
- GI50 (OVCAR-5): > 100 µM (inactive)
- GI50 (RXF 393): > 100 µM (inactive)
- GI50 (SK-MEL-2): > 100 µM (inactive)
- GI50 (SNB-19): > 100 µM (inactive)
- GI50 (HCT-15): > 100 µM
- GI50 (K562): > 100 µM (inactive)
- GI50 (U-251): > 100 µM (inactive)
- GI50 (786-0): > 100 µM (inactive)
- GI50 (IGROV-1): > 100 µM (inactive)
- GI50 (HOP-62): > 100 µM (inactive)
- GI50 (NCI-H460): > 100 µM (inactive)
- GI50 (SF-295): > 100 µM (inactive)
- GI50 (NCI-H226): > 100 µM (inactive)
- GI50 (HCT-116): > 100 µM (inactive)
- GI50 (EKVX): > 100 µM (inactive)
- GI50 (SK-MEL-5): > 100 µM (inactive)
- GI50 (SR): > 100 µM (inactive)
- GI50 (DU-145): > 100 µM (inactive)
- GI50 (SN12C): > 100 µM (inactive)
- GI50 (SNB-75): > 100 µM (inactive)
- GI50 (MCF7): > 100 µM (inactive)
- GI50 (A549): > 100 µM (inactive)
- GI50 (T47D): > 100 µM (inactive)
- GI50 (TK-10): > 100 µM (inactive)
- GI50 (UACC-62): > 100 µM (inactive)
- GI50 (RPMI-8226): > 100 µM (inactive)
- GI50 (NCI-H23): > 100 µM (inactive)
- GI50 (Hs-578T): > 100 µM (inactive)
